Experimental findings from ChEMBL document CHEMBL2375250, “Efficient synthesis of new (R)-2-amino-1-butanol derived ureas, thioureas and acylthioureas and in vitro evaluation of their antimycobacterial activity” (Eur J Med Chem, 2013) are described below.

In brackets after ≈: the same amount, converted by molar mass. Counter-ions that a name gives are not always drawn.

Test [1] has as its system Mycobacterium tuberculosis. The test is described as follows: Antimycobacterial activity against Mycobacterium tuberculosis H37Rv assessed as bacterial growth at 5 ug/mL after 45 days by Lowenstein-Jensen method. The format is functional.
For test [2], the system named is Mycobacterium tuberculosis. The test is described as follows: Antimycobacterial activity against Mycobacterium tuberculosis H37Rv assessed as growth inhibition after 45 days by Lowenstein-Jensen method. The format is functional.
A short description of test [3]: Selectivity index, ratio of IC50 for HEK293T cells to MIC for Mycobacterium tuberculosis H37Rv. Format: functional, HEK-293T.
The next test relates to HEK-293T. The test is described as follows: Cytotoxicity against HEK293T cells assessed as cell viability after 72 hrs by MTT assay. The format is cell-based. As to conditions: Homo sapiens.
Test [4] has as its system Mycobacterium tuberculosis. The test is described as follows: Antimycobacterial activity against Mycobacterium tuberculosis assessed as growth inhibition. The format is functional.
The next test deals with Mycolicibacterium aurum. As to the kind of experiment: Antimycobacterial activity against Mycobacterium aurum A+ assessed as growth inhibition after 4 days microdrop agar proportion test. The format is functional. As to conditions: 96 h.
A further test has as its system Mycobacterium avium. As to the kind of experiment: Antimycobacterial activity against Mycobacterium avium 724 assessed as growth inhibition after 12 days microdrop agar proportion test. Format: functional. The following applies: Mycobacterium avium, 724, 288 h.

With `CC[C@H](CO)NC(=O)N[C@H](CC)CO`, in test [1], the Activity is 100%. The MIC in test [2] was greater than 24.5 µM.

With `CC[C@H](CO)NC(=O)N(C)C`, the Activity in test [1] turned out to be 100%. For the same compound, in test [2], the MIC is greater than 31.2 µM.

On to `CC[C@H](CO)NC(=S)NC`, for which, in test [1], the Activity was 100%. Moreover, the MIC in test [2] was greater than 30.8 µM.

With `CCNC(=S)N[C@H](CC)CO`, the Activity in test [1] is on record as 100%. Further, the minimum inhibitory concentration (MIC) in test [2] was greater than 28.4 µM.

For `CC[C@H](CO)NC(=S)NC(=O)CCc1ccccc1`, the “Selectivity Index” value in test [3] is listed as 9.3. In addition, the IC50 in the test on HEK-293T was found to be 66.2 µM. For the same compound, the MIC in test [2] stood at 7.13 µM (≈ 2 µg/mL).

In the case of `CC[C@H](CO)NC(=S)NC(=O)/C=C/c1ccccc1`, in test [3], the “Selectivity Index” value worked out at 119.2. Moreover, the IC50 with HEK-293T came to 42.9 µM. In test [2], the MIC was determined as 0.36 µM (≈ 0.1 µg/mL).

For the compound `CC[C@H](CO)NC(=S)NC(=O)c1ccc(N(C)C)cc1`, the “Selectivity Index” value in test [3] worked out at 3.8. In addition, in the test with HEK-293T, the IC50 worked out at 12.8 µM. For the same compound, the MIC in test [2] was 3.39 µM (≈ 1 µg/mL).

For the compound `CC[C@H](CO)NC(=S)NC(=O)c1ccccc1O`, the “Selectivity Index” value in test [3] was 14. For the same compound, the IC50 in the test with HEK-293T turned out to be 104 µM. Moreover, the MIC in test [2] is 7.46 µM (≈ 2 µg/mL).

Turning to `CCCNC(=O)N[C@H](CC)CO`, the Activity in test [1] stood at 100%. Also, the MIC in test [2] is greater than 28.7 µM.

As for `CCCCNC(=O)N[C@H](CC)CO`, in test [1], the Activity came to 100%. In addition, the MIC in test [2] was greater than 26.6 µM.

Take `CC[C@H](CO)NC(=O)NC1CCCCC1`: the Activity in test [1] was determined as 100%. In test [2], the MIC is greater than 23.3 µM.

Turning to `CC[C@H](CO)NC(=O)NCC(c1ccccc1)c1ccccc1`, in test [1], the Activity stood at 100%. In addition, the MIC in test [2] was found to be 4.8 µM (≈ 1.5 µg/mL).

For the compound `CC[C@H](CO)NC(=O)NC12CC3CC(CC(C3)C1)C2`, the Activity in test [1] stood at 100%. Also, the MIC in test [2] is greater than 18.8 µM.

On to `CC[C@H](CO)NC(=O)NCCc1ccccc1`, for which the Activity in test [1] is reported as 100%. The MIC in test [2] is greater than 21.2 µM.

Turning to `CC[C@H](CO)NC(=O)NCc1ccccc1`, the Activity in test [1] stood at 100%. The minimal inhibitory concentration (MIC) in test [2] was greater than 22.5 µM.

For the compound `CC[C@H](CO)NC(=O)N[C@H](C)c1ccccc1`, the Activity in test [1] stood at 100%. The MIC in test [2] was greater than 21.2 µM.

On to `CC[C@H](CO)NC(=O)Nc1ccccc1`, for which the Activity in test [1] amounted to 100%. Moreover, the MIC in test [2] was greater than 24 µM.

Turning to `CC[C@H](CO)NC(=O)NCCCCCCNC(=O)N[C@H](CC)CO`, in test [1], the Activity came out at 100%. Further, in test [2], the MIC is greater than 14.4 µM.

Turning to `CC[C@H](CO)NC(=O)Nc1ccc(NC(=O)N[C@H](CC)CO)cc1`, the Activity in test [1] stood at 100%. In test [2], the MIC was greater than 14.8 µM.

With `CC[C@H](CO)NC(=O)Nc1ccc(Cc2ccc(NC(=O)N[C@H](CC)CO)cc2)cc1`, in test [1], the Activity amounted to 100%. In addition, the MIC in test [2] is greater than 11.7 µM.

In the case of `CC[C@H](CO)NC(=O)NC(C)(C)C`, the Activity in test [1] is recorded as 100%. In test [2], the MIC was greater than 26.6 µM.

In the case of `CC[C@@H](CO)NCCN[C@@H](CC)CO` [ETHAMBUTOL HYDROCHLORIDE], the MIC in test [4] and in test [2] was 7.22 µM each time.

In the case of `CC(C)=CCC/C(C)=C/CNCCNC1C2CC3CC(C2)CC1C3` (stereo unspecified) [SQ109], the MIC in test [4] was found to be 0.7 µM (≈ 0.231 µg/mL).

For the compound `CC(C)CCOc1ccc(NC(=S)Nc2ccc(OCCC(C)C)cc2)cc1` [TIOCARLIDE], the MIC with Mycolicibacterium aurum was 4.99 µM; with Mycobacterium avium, 4.99 µM (≈ 2 µg/mL).
